Like-named read-outs stand apart in the source and are kept apart here. Values belong to the molecule of their own block, whether it stands above or below them.
How the values were obtained:
[1] = Plasma GAA activity half-life of ATB200 batches after single IV bolus; type: in vivo, mouse; details: GAA activity in plasma, Gaa KO mice
[2] = system: Gaa KO mice; assay: Glycogen reduction by ATB200 batches vs Lumizyme; type: in vivo, mouse; details: 2 IV bolus injections every other week, FIGS. 37A-37D
Description: In a related study, IV bolus tail vein injections of ATB200 (Batches A and B) and Lumizyme® were given to Gaa KO mice every other week for a total of 2 injections. Glycogen levels in tissues were measured 14 days after last administration.

[3] = Specific activity of ATB200 batches; type: biochemical
Description: Two batches of ATB200 with different sialic acid content were evaluated for pharmacokinetics and efficacy in Gaa KO mice.

[4] = Population PK model of duvoglustat in plasma and tissue; type: in vivo, human; details: typical value
Description: Concentration-time profiles of miglustat (200 mg) in Pompe disease patients are compared to those obtained following administration of duvoglustat in normal healthy volunteers (dose range: 50, 100, 250, 600, and 1000 mg). Because concentration-time profiles of miglustat in patients with Pompe disease are similar to those observed following dosing of duvoglustat in healthy subjects over 24 h, PK data collected for duvoglustat in peripheral tissues were used as a surrogate to model exposure to miglustat. A two-compartment model with linear elimination is used to characterize the concentration-time profiles of duvoglustat in tissues.

[5] = biological target: CIMPR (Homo sapiens, UniProt P11717); assay: CIMPR affinity chromatography of rhGAA; type: binding; details: fraction of total enzyme by GAA activity
Chain of CIMPR (P11717 41-2491, species assumed): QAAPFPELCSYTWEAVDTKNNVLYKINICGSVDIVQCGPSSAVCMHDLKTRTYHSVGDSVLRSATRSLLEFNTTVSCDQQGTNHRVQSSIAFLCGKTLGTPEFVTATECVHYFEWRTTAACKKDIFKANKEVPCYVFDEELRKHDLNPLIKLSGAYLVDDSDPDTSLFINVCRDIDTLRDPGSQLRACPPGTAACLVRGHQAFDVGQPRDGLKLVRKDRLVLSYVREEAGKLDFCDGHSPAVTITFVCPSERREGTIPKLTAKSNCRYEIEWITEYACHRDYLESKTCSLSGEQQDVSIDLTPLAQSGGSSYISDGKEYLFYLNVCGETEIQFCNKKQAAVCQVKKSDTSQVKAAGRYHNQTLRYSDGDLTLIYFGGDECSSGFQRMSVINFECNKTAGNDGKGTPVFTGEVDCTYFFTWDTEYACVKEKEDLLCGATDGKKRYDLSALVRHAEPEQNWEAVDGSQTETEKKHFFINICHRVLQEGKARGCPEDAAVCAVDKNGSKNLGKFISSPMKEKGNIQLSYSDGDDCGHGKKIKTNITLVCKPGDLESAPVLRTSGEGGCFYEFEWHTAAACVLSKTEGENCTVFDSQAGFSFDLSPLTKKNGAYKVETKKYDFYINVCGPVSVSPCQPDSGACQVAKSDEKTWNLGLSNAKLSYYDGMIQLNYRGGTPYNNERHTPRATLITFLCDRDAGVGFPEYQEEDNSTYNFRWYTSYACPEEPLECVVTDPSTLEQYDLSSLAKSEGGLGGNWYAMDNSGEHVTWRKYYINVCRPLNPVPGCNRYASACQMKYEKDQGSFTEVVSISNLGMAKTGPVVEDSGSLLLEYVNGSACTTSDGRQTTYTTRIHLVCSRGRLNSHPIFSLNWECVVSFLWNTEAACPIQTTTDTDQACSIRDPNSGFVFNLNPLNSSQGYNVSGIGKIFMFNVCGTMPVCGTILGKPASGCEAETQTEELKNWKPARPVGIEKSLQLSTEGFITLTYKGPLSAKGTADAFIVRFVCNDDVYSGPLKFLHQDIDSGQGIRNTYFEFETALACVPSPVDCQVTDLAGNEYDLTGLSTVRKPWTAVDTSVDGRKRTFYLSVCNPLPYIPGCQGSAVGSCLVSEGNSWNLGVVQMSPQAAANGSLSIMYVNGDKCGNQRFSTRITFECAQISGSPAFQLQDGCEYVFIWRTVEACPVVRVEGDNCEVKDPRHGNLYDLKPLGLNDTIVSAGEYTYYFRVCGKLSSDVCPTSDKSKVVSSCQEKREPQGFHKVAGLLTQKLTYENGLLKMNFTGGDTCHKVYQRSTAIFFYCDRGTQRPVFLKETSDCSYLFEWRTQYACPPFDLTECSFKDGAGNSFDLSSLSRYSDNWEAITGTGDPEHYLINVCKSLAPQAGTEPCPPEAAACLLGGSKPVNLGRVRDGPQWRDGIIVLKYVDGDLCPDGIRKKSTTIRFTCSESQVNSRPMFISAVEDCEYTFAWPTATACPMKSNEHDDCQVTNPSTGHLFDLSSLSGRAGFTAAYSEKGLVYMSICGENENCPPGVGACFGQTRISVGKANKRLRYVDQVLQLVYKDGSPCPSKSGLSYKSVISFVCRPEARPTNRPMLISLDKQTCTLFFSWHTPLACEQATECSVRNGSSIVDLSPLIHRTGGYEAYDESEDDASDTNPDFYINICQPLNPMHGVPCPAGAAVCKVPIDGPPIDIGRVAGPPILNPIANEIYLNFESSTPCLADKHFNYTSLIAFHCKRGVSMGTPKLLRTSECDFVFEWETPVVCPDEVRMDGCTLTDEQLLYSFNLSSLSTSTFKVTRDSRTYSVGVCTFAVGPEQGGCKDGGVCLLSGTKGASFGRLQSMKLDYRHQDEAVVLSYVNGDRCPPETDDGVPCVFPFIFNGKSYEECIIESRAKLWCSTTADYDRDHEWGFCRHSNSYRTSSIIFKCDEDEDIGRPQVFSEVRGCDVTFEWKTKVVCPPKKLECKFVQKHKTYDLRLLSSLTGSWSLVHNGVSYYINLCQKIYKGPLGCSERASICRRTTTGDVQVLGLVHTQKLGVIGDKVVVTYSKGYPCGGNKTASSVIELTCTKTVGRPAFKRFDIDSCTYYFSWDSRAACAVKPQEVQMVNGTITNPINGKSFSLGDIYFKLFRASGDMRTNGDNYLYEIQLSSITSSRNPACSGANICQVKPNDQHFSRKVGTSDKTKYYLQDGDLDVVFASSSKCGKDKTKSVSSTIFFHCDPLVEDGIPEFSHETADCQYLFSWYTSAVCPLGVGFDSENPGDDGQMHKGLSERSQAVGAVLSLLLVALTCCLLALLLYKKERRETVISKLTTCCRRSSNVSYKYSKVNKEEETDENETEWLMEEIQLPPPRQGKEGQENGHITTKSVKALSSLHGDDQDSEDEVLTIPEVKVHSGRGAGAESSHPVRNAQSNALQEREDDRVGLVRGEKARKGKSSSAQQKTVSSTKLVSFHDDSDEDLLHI
Description: To evaluate the ability of the rhGAA in Myozyme® and Lumizyme®, the only currently approved treatments for Pompe disease, these rhGAA preparations were injected onto a CIMPR column (which binds rhGAA having M6P groups) and subsequently eluted with a free […] gradient. Fractions were collected in 96-well plate and GAA activity assayed by 4MU—α-glucose substrate. The relative amounts of bound and unbound rhGAA were determined based on GAA activity and reported as the fraction of total enzyme.

[6] = 20 to 40 mg/kg alglucosidase alfa with 4 doses of 80 mg miglustat; 13 Pompe subjects; mean; cited from earlier work
[7] = Apparent plasma half-life in vivo
[8] = system: Gaa KO mice; assay: Cellular dysfunction in Gaa KO mice after 2 administrations; type: in vivo, mouse; details: 20 mg/kg ERT every other week, miglustat 10 mg/kg
Description: These key muscle proteins require proper protein trafficking to the muscle cell membrane where they function. […] Alglucosidase alfa (Myozyme®) and ATB200 with and without 10 mg/kg miglustat were evaluated in Gaa KO mice at equivalent ERT dose (20 mg/kg) via an every other week dosing schedule. […] In FIGS. 32A-32D, * indicates statistically significant compared to Myozyme® alone.

Molecule: Batch A: batch of ATB200 with sialic acid 4.0 mol/mol protein and M6P content 3.3 mol/mol protein
Half-life, Mean ± SEM [1]: 30 ± 1.2 min
glycogen reduction vs Lumizyme® [2]: superior to Lumizyme® in reducing glycogen
Specific activity [3]: 115831 (nmol nmol 4 mu/mg protein/hr

clearance ([4]; human, plasma and tissue, read-out: Central compartment clearance (CL2) (converted)): 3.42 mL/min
clearance ([4]; human, plasma and tissue, read-out: Systemic clearance (CL) (converted)): 157 mL/min
Vd ([4]; human, plasma and tissue, read-out: Volume of distribution (V)): 44.5 L
Apparent intercompartment clearance (CLQ) [4]: 40.6 L/h
Elimination rate constant (Keo) [4]: 0.378
Intercompartment volume of distribution (VQ) [4]: 61.8 L
Intercompartment volume of distribution within central compartment (VQ2) [4]: 3390 L
Lag time [4]: 0.176 h
Peripheral compartment clearance (CL3) [4]: 88.0 L/h
Peripheral volume of distribution (V2) [4]: 8.68 L
Rate constant of absorption (Ka) [4]: 1.10 h⁻¹
Molecule: OC[C@H]1NC[C@H](O)[C@@H](O)[C@@H]1O [duvoglustat, (2R,3R,4R,5S)-2-(hydroxymethyl)piperidine-3,4,5-triol]

rhGAA activity eluted prior to addition of M6P (did not bind to the CIMPR) [5]: 73%
rhGAA eluted with M6P / containing M6P (CIMPR binding) [5]: 27%
Molecule: Myozyme®: conventional rhGAA product (alglucosidase alfa), Genzyme

Molecule: [199-arginine,223-histidine]prepro-α-glucosidase (human) [alglucosidase alfa]
increase in acid α-glucosidase activity exposure (AUC), co-administration vs alglucosidase alfa alone [6]: 6.8 fold
apparent plasma half-life t1/2 [7]: ~60 min
autophagy (LC3 II) and lysosomal proliferation (LAMP1) ([8]; FIGS. 29-30): negligible effects towards reducing autophagy
lysosomal glycogen in skeletal muscles ([8]; FIGS. 32A-32D): modestly reduced accumulated lysosomal glycogen in skeletal muscles

Molecule: Batch B: batch of ATB200 with sialic acid 5.4 mol/mol protein and M6P content 2.9 mol/mol protein
Half-life, Mean ± SEM [1]: 36 ± 1.8 min
glycogen reduction vs Lumizyme® [2]: superior to Lumizyme® in reducing glycogen
glycogen reduction, Batch B vs Batch A ([2]; similar doses): generally more effective in reducing glycogen than Batch A
Specific activity [3]: 120929 (nmol nmol 4 mu/mg protein/hr
